According to US20150197536A1, “COMPOUNDS REDUCING THE PRODUCTION OF SORBITOL IN THE EYE AND METHODS OF USING THE SAME” (THE REGENTS OF THE UNIVERSITY OF COLORADO, a body corporate, priority 2012, published 2015):

Assays:
diabetic cataracts = details: active ingredient of gooseberry extracts; Puppala et al. 2012; cited from earlier work
[1] = tested on: lenses of PAR40 transgenic mice that express human AKR1B1; test: Sorbitol accumulation in lenses of PAR40 transgenic mice cultured ex vivo; assay type: cell-based; details: PAR40 transgenic mice expressing human AKR1B1; hyperglycemic conditions; lenses excised and cultured ex vivo; FIG. 4B/5B
[2] = tested on: Raw264.7 murine macrophages; test: Sorbitol accumulation in Raw264.7 murine macrophages; assay type: cell-based; details: FIG. 4A/5A
AKR1A1 = target: T1, AKR1A1 (Homo sapiens, UniProt P14550); test: Aldo keto reductase specificity, AKR1A1; assay type: biochemical; details: FIG. 3B; result in words
T1 sequence (P14550 1-325): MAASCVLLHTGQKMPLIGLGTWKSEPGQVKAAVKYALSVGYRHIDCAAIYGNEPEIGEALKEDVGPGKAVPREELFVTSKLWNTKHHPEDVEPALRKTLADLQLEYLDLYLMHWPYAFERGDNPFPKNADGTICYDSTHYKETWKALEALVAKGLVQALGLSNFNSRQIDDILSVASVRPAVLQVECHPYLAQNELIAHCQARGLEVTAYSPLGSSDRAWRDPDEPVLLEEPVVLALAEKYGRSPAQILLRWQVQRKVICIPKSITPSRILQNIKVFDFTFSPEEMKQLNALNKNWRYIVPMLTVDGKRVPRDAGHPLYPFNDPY

AKR1B10 = AKR1B10 (Homo sapiens, UniProt O60218); test: Aldo keto reductase specificity, AKR1B10; assay type: biochemical; details: FIG. 3B; result in words
Sequence of AKR1B10 (O60218 whole entry, species assumed): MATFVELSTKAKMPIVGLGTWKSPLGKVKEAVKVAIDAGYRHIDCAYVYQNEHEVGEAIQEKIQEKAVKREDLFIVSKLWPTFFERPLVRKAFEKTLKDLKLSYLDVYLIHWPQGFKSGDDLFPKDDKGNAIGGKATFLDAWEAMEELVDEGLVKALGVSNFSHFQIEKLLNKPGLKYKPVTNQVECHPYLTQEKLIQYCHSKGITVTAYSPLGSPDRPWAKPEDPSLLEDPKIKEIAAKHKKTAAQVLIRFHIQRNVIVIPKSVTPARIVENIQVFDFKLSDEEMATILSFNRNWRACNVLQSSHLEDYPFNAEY

Row | Structure (SMILES) | efficacy in slowing the progression of diabetic cataracts (diabetic cataracts) | sorbitol accumulation [1] | sorbitol accumulation [2] | specificity for AKR1B1 over AKR1A1 (AKR1A1) | specificity for AKR1B1 over AKR1B10 (AKR1B10)
1 | O=C(O[C@@H]1O[C@H](CO)[C@@H](O)[C@H](O)[C@H]1O)c1cc(O)c(O)c(O)c1 [BGG, 1-O-(3,4,5-trihydroxybenzoyl)-β-D-glucopyranose] | efficacy in slowing the progression of diabetic cataracts |  |  |  | 
2 | O=C(N[C@@H]1O[C@H](CO)[C@@H](O)[C@H](O)[C@H]1O)c1cc(O)c(O)c(O)c1 [BGA, 1-deoxy-1-(3,4,5-trihydroxybenzamido)-β-D-glucopyranose] |  | blocks sorbitol accumulation | blocks sorbitol accumulation | displays specificity for AKR1B1 over other aldo keto reductase enzymes | displays specificity for AKR1B1 over other aldo keto reductase enzymes
